Measurements as given in patent US20250049802A1, “COMBINATION THERAPIES AND USES FOR TREATING CANCER” (Pfizer Inc., priority 2021, published 2025).

Experiments:
[1] = system: ST941 PDX breast cancer model; test: In vivo efficacy (tumor growth inhibition) in the HR+/HER2− ST941 PDX model; set-up: species or system female athymic nude mice
Protocol: The HR+/HER2− PDX studies were performed at START (San Antonio, TX) using female athymic nude mice (Foxn1nu/Foxn1nu, JAX Laboratories). Mice received 8.5 μg/mL β estradiol drinking water during study. The live donor mice were established by implanting cryopreserved tumor fragments (around 70 mg). Once ready, the donor tumor fragments were subsequently transplanted into secondary recipient mice for a study expansion.
Palbocidib was dosed twice daily (7 hr apart). PF-06821497 and vehicle was dosed once daily. Fulvestrant was administered twice in the first week, then weekly afterwards. TGI was assessed on Day 36 post first dose.
Tumor volume and body weights were measured twice a week after dosing initiation. Tumor volume i was calculated using the [(Length×Width×Width)/2)] formula. TGI was calculated as 100*(1−ΔT/ΔC). The ΔC (ΔT) was obtained by subtracting the mean tumor burden in the vehicle (treated) group on the first day of treatment (Day 0) from the mean tumor burden in vehicle (treated) group on the assessment day. All mice received treatment continuously until the day of efficacy assessment. Statistical analysis was performed in GraphPad Prism with an unpaired t test, followed by Mann-Whitney test.
The ST941 tumor bearing mice were randomized into 4 groups when the mean tumor volume reached around 177 mm3 and subsequently treated.

[2] = system: HCC1428 breast cancer model; test: In vivo efficacy (tumor growth inhibition) in the HR+/HER2− HCC1428 breast cancer model; set-up: species or system female NSG mice
Protocol: HCC1428 cells (ATCC, CRL-2327) were maintained in PRMI-1640 medium, plus 10% FBS until ready for implant. HCC1428 model was established by serial in vivo propagation. To establish the HCC1428 donor mice, tumor cells (5×10^6 cell/mouse with 50% Cultrex® Basement Membrane Matrix) were subcutaneously implanted in female NSG mice with estrogen supplementation (SC implanted, in 0.36 mg 90-day release, Innovative Research of America, cat #NE-121). Once reaching a range of 700 to 800 mm3, donor tumors were subsequently transplanted into secondary recipient mice for a study expansion. In this study, the HCC1428 model was established by implanting passage 4 tumor fragments into recipient mice. […] TGI was assessed on Day 36 post first dose.
Tumor volume and body weights were measured twice a week after dosing initiation. Tumor volume i was calculated using the [(Length×Width×Width)/2)] formula. TGI was calculated as 100*(1−ΔT/ΔC). […]

## COc1cc(C)[nH]c(=O)c1CN1CCc2c(Cl)cc([C@H](OC)C3COC3)c(Cl)c2C1=O [PF-06821497, 5,8-dichloro-2-[(4-methoxy-6-methyl-2-oxo-1,2-dihydro-pyridin-3-yl)methyl]-7-[(R)-methoxy(oxetan-3-yl)methyl]-3,4-dihydroisoquinolin-1(2H)-one]
[1]; TGI = 100*(1−ΔT/ΔC), doses and schedules per Table 2
  % TGI (D18): 44.6%
[1]; p<0.05 vs vehicle
  antitumor efficacy vs vehicle: significant antitumor efficacy
[2]; Day 36 post first dose, TGI = 100*(1−ΔT/ΔC), doses and schedules per Table 1
  % TGI (D36): 55%
[2]; p<0.05 vs vehicle
  antitumor efficacy vs vehicle: significant antitumor efficacy
